Assay results taken from patent publication US20150246093A1, “ORAL FORMULATIONS OF ANGIOTENSIN” (TARIX PHARMACEUTICALS LTD., priority 2012, published 2015).
Where two headings read alike, the source gives them in different places.

Experiment: Pharmacokinetics after intra-duodenal injection (ID) in anesthetized rats, model mimicking enteric-coated oral dosage form, plasma LC-MS
Format: in vivo, rat
Conditions: rat, plasma; for Tmax / AUC(0-t) / Cmax / Half-Life: other: intra-duodenal injection (ID); for AUC(0-t): read-out: AUC0-90 (converted); for Cmax: read-out: Cmax; for level at 5 min: time point 5 min; for level at 5 min / level at 10 min / level at 20 min / level at 40 min / level at 1 h / level at 1.5 h: Average, read-out: Angiotensin (1-7) concentration; for level at 10 min: time point 10 min; for level at 20 min: time point 20 min; for level at 40 min: time point 40 min; for level at 1 h: time point 60 min; for level at 1.5 h: time point 90 min
Procedure: This model mimics the release and absorption expected from an orally delivered enteric coated solid dosage form such as capsule or tablet.
After extraction, the samples were then transferred to ice-cold tubes containing a protease inhibitor cocktail. The samples were kept on ice until they were centrifuged at 4° C. to obtain plasma. The plasma supernatants were then frozen −70° C. until analysis using an LC-MS assay.
The oral delivery of an angiotensin (1-7) peptide (e.g., TXA127) was then evaluated in a rat model that mimics the release of the peptide into the intestine by enteric-coated capsule. Briefly, the duodenums of anesthetized rats were surgically exposed, and an angiotensin (1-7) peptide was delivered through a 27 gauge needle into the duodenum. A baseline was obtained by ID administration of an angiotensin (1-7) in PBS. Samples of blood was removed from the carotid artery before and 5, 10, 20, 40, 60 and 90 minutes after peptide administration. Subsequently, an angiotensin (1-7) peptide was administered ID in 400 mM citrate buffer (pH 3.5) and lauroyl-L-carnitine (LLC) (10 mg/ml), a formulation that mimics the contents of the enteric-coated capsules. In order to maximize the stability of TXA127 in rat circulation, captopril (e.g., 0.5 mg/ml or 5 mg/ml) may be added to the formulations. Blood samples were taken at the same time points as the baseline study and handled as described above for analysis.

[1] = 3 mg, ID 0.3 ml A [10 mg/ml in PBS], Mean PK Values (average of individual PK parameters)
[2] = 3 mg, pH 3.5, ID 0.3 ml B [10 mg/ml, 10 mg/ml LLC, 400 mM Citrate pH 3.5, 150 mM NaCl], Average (PK value of the mean concentrations)
[3] = 3 mg, pH 3.5, ID 0.3 ml B [10 mg/ml, 10 mg/ml LLC, 400 mM Citrate pH 3.5, 150 mM NaCl], Mean PK Values (average of individual PK parameters)
[4] = 3 mg, pH 3.5, ID 0.3 ml C [10 mg/ml, Captopril 0.5 mg/ml, 10 mg/ml LLC, 400 mM Citrate pH 3.5, 150 mM NaCl], Average (PK value of the mean concentrations)
[5] = 3 mg, pH 3.5, ID 0.3 ml C [10 mg/ml, Captopril 0.5 mg/ml, 10 mg/ml LLC, 400 mM Citrate pH 3.5, 150 mM NaCl], Mean PK Values (average of individual PK parameters)
[6] = 3 mg, pH 3.5, ID 0.3 ml C [10 mg/ml, Captopril 5 mg/ml, 10 mg/ml LLC, 400 mM Citrate pH 3.5, 150 mM NaCl], Average (PK value of the mean concentrations)
[7] = 3 mg, pH 3.5, ID 0.3 ml C [10 mg/ml, Captopril 5 mg/ml, 10 mg/ml LLC, 400 mM Citrate pH 3.5, 150 mM NaCl], Mean PK Value (average of individual PK parameters)
[8] = pH 3.5, ID 0.3 ml C [10 mg/ml, Captopril 0.5 mg/ml, 10 mg/ml LLC, 400 mM Citrate pH 3.5, 150 mM NaCl]
[9] = pH 3.5, ID 0.3 ml C [10 mg/ml, Captopril 5 mg/ml, 10 mg/ml LLC, 400 mM Citrate pH 3.5, 150 mM NaCl]

SMILES: CC[C@H](C)[C@H](NC(=O)[C@H](Cc1ccc(O)cc1)NC(=O)[C@@H](NC(=O)[C@H](CCCNC(=N)N)NC(=O)[C@@H](N)CC(=O)O)C(C)C)C(=O)N[C@@H](Cc1c[nH]cn1)C(=O)N1CCC[C@H]1C(=O)O [Angiotensin (1-7), Asp^1-Arg^2-Val^3-Tyr^4-Ile^5-His^6-Pro^7]
- Tmax (3 mg, ID 0.3 ml A [10 mg/ml in PBS], Average (PK value of the mean concentrations), read-out: Tmax (converted)): 60 min
- AUC(0-t) [1]: 6.72 ng·h/mL
- Cmax [1]: 7.5 ng/mL
- Half-Life (3 mg, ID 0.3 ml A [10 mg/ml in PBS], Mean PK Values (average of individual PK parameters), read-out: Half-Life): 38.9 min
- Tmax (3 mg, ID 0.3 ml A [10 mg/ml in PBS], Mean PK Values (average of individual PK parameters), read-out: Tmax (converted)): 46 min
- Half-Life (3 mg, ID, 0.3 mL of 10 mg/mL A(1-7) formulated in PBS, 6 rats, range over the group, read-out: Half-lives): 7 to 140 min
- Tmax (3 mg, ID, 0.3 mL of 10 mg/mL A(1-7) formulated in PBS, 6 rats, range over the group, read-out: Tmax after administration): 10 to 60 min
- AUC(0-t) [2]: 71.2 ng·h/mL
- Cmax [2]: 416 ng/mL
- Half-Life (3 mg, pH 3.5, ID 0.3 ml B [10 mg/ml, 10 mg/ml LLC, 400 mM Citrate pH 3.5, 150 mM NaCl], Average (PK value of the mean concentrations), read-out: Half-Life): 13 min
- Tmax (3 mg, pH 3.5, ID 0.3 ml B [10 mg/ml, 10 mg/ml LLC, 400 mM Citrate pH 3.5, 150 mM NaCl], Average (PK value of the mean concentrations), read-out: Tmax (converted)): 5 min
- AUC(0-t) [3]: 71.2 ng·h/mL
- Cmax [3]: 419 ng/mL
- Half-Life (3 mg, pH 3.5, ID 0.3 ml B [10 mg/ml, 10 mg/ml LLC, 400 mM Citrate pH 3.5, 150 mM NaCl], Mean PK Values (average of individual PK parameters), read-out: Half-Life): 46.4 min
- Tmax (3 mg, pH 3.5, ID 0.3 ml B [10 mg/ml, 10 mg/ml LLC, 400 mM Citrate pH 3.5, 150 mM NaCl], Mean PK Values (average of individual PK parameters), read-out: Tmax (converted)): 5.8 min
- Tmax (3 mg, pH 3.5, ID 0.3 ml B [10 mg/ml, 10 mg/ml LLC, 400 mM Citrate pH 3.5, 150 mM NaCl], individual rats, read-out: Tmax (converted)): 5 min
- AUC(0-t) [4]: 126 ng·h/mL
- Cmax [4]: 628 ng/mL
- Half-Life (3 mg, pH 3.5, ID 0.3 ml C [10 mg/ml, Captopril 0.5 mg/ml, 10 mg/ml LLC, 400 mM Citrate pH 3.5, 150 mM NaCl], Average (PK value of the mean concentrations), read-out: Half-Life): 14 min
- Tmax (3 mg, pH 3.5, ID 0.3 ml C [10 mg/ml, Captopril 0.5 mg/ml, 10 mg/ml LLC, 400 mM Citrate pH 3.5, 150 mM NaCl], Average (PK value of the mean concentrations), read-out: Tmax (converted)): 5 min
- AUC(0-t) [5]: 119 ng·h/mL
- Cmax [5]: 609 ng/mL
- Half-Life (3 mg, pH 3.5, ID 0.3 ml C [10 mg/ml, Captopril 0.5 mg/ml, 10 mg/ml LLC, 400 mM Citrate pH 3.5, 150 mM NaCl], Mean PK Values (average of individual PK parameters), read-out: Half-Life): 19.4 min
- Tmax (3 mg, pH 3.5, ID 0.3 ml C [10 mg/ml, Captopril 0.5 mg/ml, 10 mg/ml LLC, 400 mM Citrate pH 3.5, 150 mM NaCl], Mean PK Values (average of individual PK parameters), read-out: Tmax (converted)): 7.1 min
- Tmax (3 mg, pH 3.5, ID 0.3 ml C [10 mg/ml, Captopril 0.5 mg/ml, 10 mg/ml LLC, 400 mM Citrate pH 3.5, 150 mM NaCl], individual rats, read-out: Tmax (converted)): 5 min
- AUC(0-t) [6]: 157 ng·h/mL
- Cmax [6]: 619 ng/mL
- Half-Life (3 mg, pH 3.5, ID 0.3 ml C [10 mg/ml, Captopril 5 mg/ml, 10 mg/ml LLC, 400 mM Citrate pH 3.5, 150 mM NaCl], Average (PK value of the mean concentrations), read-out: Half-Life): 13 min
- Tmax (3 mg, pH 3.5, ID 0.3 ml C [10 mg/ml, Captopril 5 mg/ml, 10 mg/ml LLC, 400 mM Citrate pH 3.5, 150 mM NaCl], Average (PK value of the mean concentrations), read-out: Tmax (converted)): 5 min
- AUC(0-t) [7]: 156 ng·h/mL
- Cmax [7]: 640 ng/mL
- Half-Life (3 mg, pH 3.5, ID 0.3 ml C [10 mg/ml, Captopril 5 mg/ml, 10 mg/ml LLC, 400 mM Citrate pH 3.5, 150 mM NaCl], Mean PK Value (average of individual PK parameters), read-out: Half-Life): 14.1 min
- Tmax (3 mg, pH 3.5, ID 0.3 ml C [10 mg/ml, Captopril 5 mg/ml, 10 mg/ml LLC, 400 mM Citrate pH 3.5, 150 mM NaCl], Mean PK Value (average of individual PK parameters), read-out: Tmax (converted)): 5.8 min
- Tmax (3 mg, pH 3.5, ID 0.3 ml C [10 mg/ml, Captopril 5 mg/ml, 10 mg/ml LLC, 400 mM Citrate pH 3.5, 150 mM NaCl], individual rats, read-out: Tmax (converted)): 5 min
- Half-Life (3 mg, pH 3.5, ID, 0.3 mL of 10 mg/mL A(1-7) with 10 mg/mL LLC, 400 mM Citrate, 150 mM NaCl pH 3.5, range over the group, read-out: Half-lives): 9.3 to 173 min
- Tmax (3 mg, pH 3.5, ID, 0.3 mL of 10 mg/mL A(1-7) with 10 mg/mL LLC, 400 mM Citrate, 150 mM NaCl pH 3.5, range over the group, read-out: Tmax after administration): 5 to 10 min
- Half-Life (pH 3.5, ID, 0.3 mL of 10 mg/mL A(1-7) with 0.5 mg/mL captopril, 10 mg/mL LLC, 400 mM Citrate, 150 mM NaCl pH 3.5, seven rats (Table 4), range over the group, read-out: Half-lives): 11.9 to 29.1 min
- Half-Life (ID, 0.3 mL of 10 mg/mL A(1-7) with 0.5 mg/mL captopril (as printed in the text on Table 5), 10 mg/mL LLC, 400 mM Citrate, 150 mM NaCl pH 3.5, six rats, range over the group, read-out: Half-lives): 7.97 to 25.6 min
- Tmax (ID, 0.3 mL of 10 mg/mL A(1-7) with 0.5 mg/mL captopril, 10 mg/mL LLC, 400 mM Citrate, 150 mM NaCl pH 3.5, seven rats (Table 4), range over the group, read-out: Tmax after administration): 5 to 10 min
- level at 5 min [8]: 628 ng/mL
- level at 10 min [8]: 233 ng/mL
- level at 20 min [8]: 129 ng/mL
- level at 40 min [8]: 13.9 ng/mL
- level at 1 h [8]: 14.4 ng/mL
- level at 1.5 h [8]: 7.74 ng/mL
- level at 5 min [9]: 619 ng/mL
- level at 10 min [9]: 424 ng/mL
- level at 20 min [9]: 138 ng/mL
- level at 40 min [9]: 24.1 ng/mL
- level at 1 h [9]: 19.2 ng/mL
- level at 1.5 h [9]: 5.83 ng/mL
